Values quoted from earlier work in patent publication EP4101443A1, “HOT-MELT COATED PARTICLES WITH PH-DEPENDENT RELEASE” (HERMES PHARMA GmbH, priority 2021, dated 2022).
Values after ≈ are worked out from the molar mass of the structure shown.

Row | solubility [mg/mL] | Compound
1 | 2.24 (≈ 12.4 mM) | CC(=O)Oc1ccccc1C(=O)O [ASA, acetylsalicylic acid]
2 | 200 (≈ 1230 mM) | CC(=O)N[C@@H](CS)C(=O)O [NAC, N-acetylcysteine]
